Source: patent US20260297080A1, “BICYCLIC COMPOUNDS AS CDK INHIBITORS” (BeOne Medicines I GmbH, priority 2022, published 2026)

What was measured:
CDK2/Cyclin E1 = CDK2/Cyclin E1 (Homo sapiens, UniProt P24941); experiment: CDK2/Cyclin E1 Biochemical Assay (TR-FRET), 0.060 mM ATP; details: 0.15 μM Rb (Ser780)-biotin substrate, pH7.0, 60 min preincubation, 120 min reaction, room temperature
How it was run: (§1)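 TR-FRET assay with 0.15 μM Rb (Ser780)-biotin substrate and 0-10 μM compound in 50 mM HEPES pH7.0, 50 mM MgCl2, 1 mM DTT. ATP was 0.060 mM for CDK2/Cyclin E1 and 0.015 mM for CDK1/Cyclin B1. Kinase was preincubated with compound 60 min, reacted 120 min at room temperature, and IC50 was fitted (four-parameter) from the 665/620 nm ratio.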

CDK1/Cyclin B1 = CDK1/Cyclin B1 (Homo sapiens, UniProt P06493); experiment: CDK1/Cyclin B1 Biochemical Assay (TR-FRET), 0.015 mM ATP; details: 0.15 μM Rb (Ser780)-biotin substrate, pH7.0, 60 min preincubation, 120 min reaction, room temperature
Chain of CDK1/Cyclin B1 (P06493 whole entry): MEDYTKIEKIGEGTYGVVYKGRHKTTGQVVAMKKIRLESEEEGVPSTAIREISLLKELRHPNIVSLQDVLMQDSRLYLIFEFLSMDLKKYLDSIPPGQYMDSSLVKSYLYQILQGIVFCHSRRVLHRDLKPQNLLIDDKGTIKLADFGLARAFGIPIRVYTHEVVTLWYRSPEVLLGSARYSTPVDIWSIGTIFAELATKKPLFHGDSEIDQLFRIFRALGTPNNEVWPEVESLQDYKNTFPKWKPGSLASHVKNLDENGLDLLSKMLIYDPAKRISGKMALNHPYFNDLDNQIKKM
Chain of CDK1/Cyclin B1 (P14635 whole entry partner): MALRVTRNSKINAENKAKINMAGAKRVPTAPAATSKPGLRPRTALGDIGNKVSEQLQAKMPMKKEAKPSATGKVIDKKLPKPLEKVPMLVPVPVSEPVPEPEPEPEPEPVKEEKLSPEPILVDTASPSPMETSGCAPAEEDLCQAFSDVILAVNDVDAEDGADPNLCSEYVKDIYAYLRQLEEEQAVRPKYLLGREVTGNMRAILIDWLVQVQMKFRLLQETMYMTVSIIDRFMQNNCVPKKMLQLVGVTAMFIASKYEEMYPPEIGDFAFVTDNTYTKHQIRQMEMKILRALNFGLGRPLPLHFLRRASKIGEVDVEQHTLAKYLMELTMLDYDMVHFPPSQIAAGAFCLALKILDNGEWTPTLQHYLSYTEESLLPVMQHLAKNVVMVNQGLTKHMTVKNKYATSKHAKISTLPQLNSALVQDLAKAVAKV
How it was run: as §1

Structure (SMILES) | IC50 (CDK2/Cyclin E1) [µM] | IC50 (CDK1/Cyclin B1) [µM]
CC(C)NC(=O)O[C@H]1CC[C@@H](c2cc(Nc3cc4c(cc3F)C(C)(C)NS4(=O)=O)n[nH]2)C1 (relative stereo) [Example 8, cis-3-(3-((5-fluoro-3,3-dimethyl-1,1-dioxido-2,3-dihydrobenzo[d]isothiazol-6-yl)amino)-1H-pyrazol-5-yl)cyclopentyl isopropylcarbamate] | 0.121 | 1.54
CC(C)NC(=O)O[C@H]1CC[C@@H](c2cc(Nc3cc(F)c4c(c3)CS(=O)(=O)N4)n[nH]2)C1 (relative stereo) [Example 279, cis-3-(3-((7-fluoro-2,2-dioxido-1,3-dihydrobenzo[c]isothiazol-5-yl)amino)-1H-pyrazol-5-yl)cyclopentyl isopropylcarbamate] | 0.0007 | 0.043
CC(C)NC(=O)O[C@H]1CC[C@@H](c2cc(Nc3ccc4c(c3)C(C)NS4(=O)=O)n[nH]2)C1 (single isomer, unassigned) [Example 321c, cis-3-(3-((3-methyl-1,1-dioxido-2,3-dihydrobenzo[d]isothiazol-5-yl)amino)-1H-pyrazol-5-yl)cyclopentyl isopropylcarbamate] | 0.0013 | 0.026
CC(C)(C)NC(=O)O[C@@H]1CC[C@H](c2cc(Nc3cc4c(cc3F)S(=O)(=O)NC4)n[nH]2)C1 (single isomer, unassigned) [Example 395a] | 0.0016 | 0.191
CCCNC(=O)O[C@H]1CC[C@@H](c2cc(Nc3cc4c(cc3F)N(CCO)S(=O)(=O)C4)n[nH]2)C1 (relative stereo) [Example 297, cis-3-(3-((6-fluoro-1-(2-hydroxyethyl)-2,2-dioxido-1,3-dihydrobenzo[c]isothiazol-5-yl)amino)-1H-pyrazol-5-yl)cyclopentyl propylcarbamate] | 0.038 | 0.607
CN1c2ccc(Nc3cc([C@@H]4CC[C@H](OC(=O)NC5(C)CCOC5)C4)[nH]n3)cc2CS1(=O)=O (relative stereo) [Example 239, cis-3-(3-((1-methyl-2,2-dioxido-1,3-dihydrobenzo[c]isothiazol-5-yl)amino)-1H-pyrazol-5-yl)cyclopentyl(3-methyltetrahydrofuran-3-yl)carbamate] | 0.0096 | 0.158
CC(C)NC(=O)O[C@H]1CC[C@@H](c2cc(Nc3ccc4c(c3F)CN(C)S4(=O)=O)n[nH]2)C1 (single isomer, unassigned) [Example 121a, cis-3-(3-((4-fluoro-2-methyl-1,1-dioxido-2,3-dihydrobenzo[d]isothiazol-5-yl)amino)-1H-pyrazol-5-yl)cyclopentyl isopropylcarbamate] | 0.0058 | 0.425
CC(C)NC(=O)O[C@H]1CC[C@@H](c2cc(Nc3ccc4c(c3F)CN(C[C@@H](N)C(C)(C)C)S4(=O)=O)n[nH]2)C1 (relative stereo) [Example 98, cis-3-(3-((2-((S)-2-amino-3,3-dimethylbutyl)-4-fluoro-1,1-dioxido-2,3-dihydrobenzo[d]isothiazol-5-yl)amino)-1H-pyrazol-5-yl)cyclopentyl isopropylcarbamate] | 0.02 | 1.91
CC1(NC(=O)O[C@H]2CC[C@@H](c3cc(Nc4cc5c(cc4F)S(=O)(=O)NC5)n[nH]3)C2)CC1 (single isomer, unassigned) [Example 44b, cis-3-(3-((6-fluoro-1,1-dioxido-2,3-dihydrobenzo[d]isothiazol-5-yl)amino)-1H-pyrazol-5-yl)cyclopentyl(1-methylcyclopropyl)carbamate] | 0.0025 | 0.091
CCCNC(=O)O[C@H]1CC[C@@H](c2cc(Nc3ccc4c(c3F)CS(=O)(=O)N4)n[nH]2)C1 (single isomer, unassigned) [Example 387b] | 0.002 | 0.037
CC[C@H](C)NC(=O)O[C@H]1CC[C@@H](c2cc(Nc3ccc4c(c3F)CN(C3COC3)S4(=O)=O)n[nH]2)C1 (single isomer, unassigned) [Example 134a] | 0.0038 | 0.488
CN1Cc2c(ccc(Nc3cc([C@@H]4CC[C@H](OC(=O)NC5(C)CCOC5)C4)[nH]n3)c2F)S1(=O)=O (relative stereo) [Example 335, cis-3-(3-((4-fluoro-2-methyl-1,1-dioxido-2,3-dihydrobenzo[d]isothiazol-5-yl)amino)-1H-pyrazol-5-yl)cyclopentyl(3-methyltetrahydrofuran-3-yl)carbamate] | 0.0051 | 0.351
[2H]C([2H])([2H])C1c2cc(Nc3cc([C@@H]4CC[C@H](OC(=O)N[C@@H](C)CC)C4)[nH]n3)cc(F)c2N(C([2H])([2H])[2H])S1(=O)=O (relative stereo) [Example 286, cis-3-(3-((7-fluoro-1,3-bis(methyl-d3)-2,2-dioxido-1,3-dihydrobenzo[c]isothiazol-5-yl)amino)-1H-pyrazol-5-yl)cyclopentyl((S)-sec-butyl)carbamate] | 0.011 | 0.174
COCC1(NC(=O)O[C@H]2CC[C@@H](c3cc(Nc4ccc5c(c4F)CN(C)S5(=O)=O)n[nH]3)C2)CC1 (relative stereo) [Example 344, cis-3-(3-((4-fluoro-2-methyl-1,1-dioxido-2,3-dihydrobenzo[d]isothiazol-5-yl)amino)-1H-pyrazol-5-yl)cyclopentyl(1-(methoxymethyl)cyclopropyl)carbamate] | 0.0064 | 0.626
CN1Cc2c(ccc(Nc3cc([C@@H]4CC[C@H](OC(=O)NC5(C)COC5)C4)[nH]n3)c2F)S1(=O)=O (single isomer, unassigned) [Example 352b, cis-3-(3-((4-fluoro-2-methyl-1,1-dioxido-2,3-dihydrobenzo[d]isothiazol-5-yl)amino)-1H-pyrazol-5-yl)cyclopentyl(3-methyloxetan-3-yl)carbamate] | 0.007 | 0.651
CC(C)NC(=O)O[C@H]1CC[C@@H](c2cc(Nc3cnc4c(c3)CN(C)S4(=O)=O)n[nH]2)C1 (relative stereo) [Example 32, cis-3-(3-((2-methyl-1,1-dioxido-2,3-dihydroisothiazolo[5,4-b]pyridin-5-yl)amino)-1H-pyrazol-5-yl)cyclopentyl isopropylcarbamate] | 0.021 | 0.424
CC1(NC(=O)O[C@H]2CC[C@@H](c3cc(Nc4ccc5c(c4F)CN(CCO)S5(=O)=O)n[nH]3)C2)CC1 (racemic) [Example 128, cis-3-(3-((4-fluoro-2-(2-hydroxyethyl)-1,1-dioxido-2,3-dihydrobenzo[d]isothiazol-5-yl)amino)-1H-pyrazol-5-yl)cyclopentyl(1-methylcyclopropyl)carbamate] | 0.0018 | 0.098
CC[C@H](C)NC(=O)O[C@H]1CC[C@@H](c2cc(Nc3ccc4c(c3)CS(=O)(=O)N4)n[nH]2)C1 (single isomer, unassigned) [Example 323a] | 0.0067 | 0.03
CC(C)NC(=O)O[C@H]1CC[C@@H](c2cc(Nc3ccc4c(c3F)CN(C3CCCC3)S4(=O)=O)n[nH]2)C1 (relative stereo) [Example 68, cis-3-(3-((2-cyclopentyl-4-fluoro-1,1-dioxido-2,3-dihydrobenzo[d]isothiazol-5-yl)amino-1H-pyrazol-5-yl)cyclopentyl isopropylcarbamate] | 0.015 | 1.18
CC(C)NC(=O)OC1CC(c2cc(Nc3ccc4c(c3)CNS4(=O)=O)n[nH]2)C1 (centres unmarked) [Example 173, 3-(3-((1,1-dioxido-2,3-dihydrobenzo[d]isothiazol-5-yl)amino)-1H-pyrazol-5-yl)cyclobutyl isopropylcarbamate] | 0.0067 | 0.073
[2H]C([2H])([2H])N1c2ccc(Nc3cc([C@@H]4CC[C@H](OC(=O)NC(C)C)C4)[nH]n3)c(F)c2CS1(=O)=O (single isomer, unassigned) [Example 267b, cis-3-(3-((4-fluoro-1-(methyl-d3)-2,2-dioxido-1,3-dihydrobenzo[c]isothiazol-5-yl)amino)-1H-pyrazol-5-yl)cyclopentyl isopropylcarbamate] | 0.0064 | 0.073
CN1c2ccc(Nc3cc([C@@H]4CC[C@H](OC(=O)NCCC(F)(F)F)C4)[nH]n3)cc2CS1(=O)=O (relative stereo) [Example 230, cis-3-(3-((1-methyl-2,2-dioxido-1,3-dihydrobenzo[c]isothiazol-5-yl)amino)-1H-pyrazol-5-yl)cyclopentyl(3,3,3-trifluoropropyl)carbamate] | 0.0098 | 0.078
O=C(NCCC(F)(F)F)O[C@H]1CC[C@@H](c2cc(Nc3ccc4c(c3F)CNS4(=O)=O)n[nH]2)C1 (racemic) [Example 154, cis-3-(3-((4-fluoro-1,1-dioxido-2,3-dihydrobenzo[d]isothiazol-5-yl)amino)-1H-pyrazol-5-yl)cyclopentyl(3,3,3-trifluoropropyl)carbamate] | 0.0017 | 0.333
CC(C)NC(=O)O[C@H]1CC[C@@H](c2cc(Nc3ccc4c(c3F)CS(=O)(=O)N4CC(F)(F)F)n[nH]2)C1 (single isomer, unassigned) [Example 263b, cis-3-(3-((4-fluoro-2,2-dioxido-1-(2,2,2-trifluoroethyl)-1,3-dihydrobenzo[c]isothiazol-5-yl)amino)-1H-pyrazol-5-yl)cyclopentyl isopropylcarbamate] | 0.0051 | 0.091
CN1c2ccc(Nc3cc([C@@H]4CC[C@H](OC(=O)NCC5COC5)C4)[nH]n3)cc2CS1(=O)=O (relative stereo) [Example 237, cis-3-(3-((1-methyl-2,2-dioxido-1,3-dihydrobenzo[c]isothiazol-5-yl)amino)-1H-pyrazol-5-yl)cyclopentyl(oxetan-3-ylmethyl)carbamate] | 0.046 | 0.435
